From ChEMBL document CHEMBL5137097, “A Warhead Substitution Study on the Coronavirus Main Protease Inhibitor Nirmatrelvir” (ACS Med Chem Lett, 2022)

Legend:
[1] = target: Replicase polyprotein 1ab (Severe acute respiratory syndrome coronavirus 2, UniProt P0DTD1); assay: Inhibition of full length SARS-CoV-2 3CLpro expressed in Escherichia coli BL21 (DE3) cells using (DABCYL)KTSAVLQSGFRKM(Glu)(EDANS) peptide as substrate preincubated for 30 mins followed by substrate addition and measured after 1.5 hrs by FRET assay
[2] = target: Replicase polyprotein 1ab (Human coronavirus 229E, UniProt P0C6X1); assay: Inhibition of full length C terminal His-tagged Human coronavirus 229E 3CLpro expressed in Escherichia coli Rosetta (DE3) cells using (DABCYL)KTSAVLQSGFRKM(Glu)(EDANS) peptide as substrate preincubated for 30 mins followed by substrate addition and measured after 1.5 hrs by FRET assay
Chain of Replicase polyprotein 1ab (Human coronavirus 229E, UniProt P0C6X1) (P0C6X1 2966-3267 limits assumed): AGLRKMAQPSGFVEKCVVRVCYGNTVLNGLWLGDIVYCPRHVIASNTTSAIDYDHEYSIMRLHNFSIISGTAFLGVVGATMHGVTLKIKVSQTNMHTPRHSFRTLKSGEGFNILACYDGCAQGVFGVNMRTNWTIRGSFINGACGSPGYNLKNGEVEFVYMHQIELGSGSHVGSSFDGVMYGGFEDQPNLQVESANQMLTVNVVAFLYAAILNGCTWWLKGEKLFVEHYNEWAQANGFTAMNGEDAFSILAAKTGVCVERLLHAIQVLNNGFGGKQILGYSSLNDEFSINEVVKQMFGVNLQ

[3] = Antiviral activity against Human coronavirus 229E infected in human MRC5 cells assessed as […] cell viability measured after 4 days by CellTiter-Glo luminescence assay; type: functional, cell-based; conditions: MRC5, 96 h

| SMILES | IC50 [1] | IC50 [2] | EC50 [3] |
| --- | --- | --- | --- |
| CC(C)(C)[C@H](NC(=O)C(F)(F)F)C(=O)N1C[C@H]2[C@@H]([C@H]1C(=O)NCCC1CCNC1=O)C2(C)C (some centres not stated) | > 100000 nM | > 100000 nM |  |
| CC(C)(C)[C@H](NC(=O)C(F)(F)F)C(=O)N1C[C@H]2[C@@H]([C@H]1C(=O)N[C@@H](C[C@@H]1CCNC1=O)C(=O)c1nc3ccccc3s1)C2(C)C |  | 239 nM | 242 nM |
| CC(C)(C)[C@H](NC(=O)C(F)(F)F)C(=O)N1C[C@H]2[C@@H]([C@H]1C(=O)N[C@@H](C[C@@H]1CCNC1=O)C(=O)C(=O)NC1CC1)C2(C)C | 19 nM | 70 nM | 2360 nM |
| CC(C)(C)[C@H](NC(=O)C(F)(F)F)C(=O)N1C[C@H]2[C@@H]([C@H]1C(=O)N[C@@H](C[C@@H]1CCNC1=O)C(N)=O)C2(C)C | > 100000 nM | > 100000 nM |  |
| CC(C)(C)[C@H](NC(=O)C(F)(F)F)C(=O)N1C[C@H]2[C@@H]([C@H]1C(=O)N[C@H](C#N)C[C@@H]1CCNC1=O)C2(C)C |  |  | 212 nM |
| CC(C)(C)[C@H](NC(=O)C(F)(F)F)C(=O)N1C[C@H]2[C@@H]([C@H]1C(=O)N[C@@H](C[C@@H]1CCNC1=O)C(=O)COCc1ccccc1)C2(C)C | 27 nM | 467 nM | 513 nM |
| COC(=O)[C@H](C[C@@H]1CCNC1=O)NC(=O)[C@@H]1[C@@H]2[C@H](CN1C(=O)[C@@H](NC(=O)C(F)(F)F)C(C)(C)C)C2(C)C | > 100000 nM | > 100000 nM |  |
| CC(C)(C)[C@H](NC(=O)C(F)(F)F)C(=O)N1C[C@H]2[C@@H]([C@H]1C(=O)N[C@@H](C[C@@H]1CCNC1=O)C(=O)CO)C2(C)C |  | 13 nM | 193 nM |
| CC(C)(C)[C@H](NC(=O)C(F)(F)F)C(=O)N1C[C@H]2[C@@H]([C@H]1C(=O)N[C@H](CO)C[C@@H]1CCNC1=O)C2(C)C | > 100000 nM | > 100000 nM |  |
| CC(C)(C)[C@H](NC(=O)C(F)(F)F)C(=O)N1C[C@H]2[C@@H]([C@H]1C(=O)N[C@H](C=O)C[C@@H]1CCNC1=O)C2(C)C | 10 nM | 16 nM | 770 nM |
